Measurements from ChEMBL document CHEMBL3632492, “Substituted 2-arylquinazolinones: Design, synthesis, and evaluation of cytotoxicity and inhibition of topoisomerases” (Eur J Med Chem, 2015).

Tests used:
[1] = target: DNA topoisomerase 2-alpha (Homo sapiens) (UniProt P11388); assay: Inhibition of recombinant human topoisomerase 2alpha mediated decatenation using kDNA as substrate at 100 uM incubated for 30 mins by agarose gel electrophoresis
[2] = target: T1, DNA topoisomerase 1 (Homo sapiens) (UniProt P11387); assay: Potency index, ratio of compound activity to CPT activity for inhibition of recombinant human topoisomerase 1 at 20 uM
T1 sequence (whole entry): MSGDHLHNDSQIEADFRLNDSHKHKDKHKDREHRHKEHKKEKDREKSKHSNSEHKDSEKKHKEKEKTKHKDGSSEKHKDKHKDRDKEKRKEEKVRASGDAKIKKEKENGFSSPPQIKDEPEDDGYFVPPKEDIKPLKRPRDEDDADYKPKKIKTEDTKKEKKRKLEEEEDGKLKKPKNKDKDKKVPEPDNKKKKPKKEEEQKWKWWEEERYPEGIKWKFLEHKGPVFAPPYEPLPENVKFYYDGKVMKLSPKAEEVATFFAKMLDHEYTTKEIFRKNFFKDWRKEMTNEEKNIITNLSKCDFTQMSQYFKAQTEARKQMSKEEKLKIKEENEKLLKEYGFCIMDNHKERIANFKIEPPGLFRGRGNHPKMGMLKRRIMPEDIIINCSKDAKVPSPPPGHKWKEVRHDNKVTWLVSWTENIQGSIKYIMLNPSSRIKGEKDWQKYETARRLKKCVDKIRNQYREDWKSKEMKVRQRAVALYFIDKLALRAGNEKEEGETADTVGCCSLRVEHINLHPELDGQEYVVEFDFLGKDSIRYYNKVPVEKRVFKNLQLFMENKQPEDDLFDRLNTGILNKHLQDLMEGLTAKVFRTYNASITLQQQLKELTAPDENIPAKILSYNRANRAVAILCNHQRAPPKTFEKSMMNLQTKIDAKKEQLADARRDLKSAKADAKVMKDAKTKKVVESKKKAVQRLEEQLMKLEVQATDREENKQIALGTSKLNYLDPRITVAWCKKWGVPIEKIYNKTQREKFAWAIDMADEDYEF

[3] = target: DNA topoisomerase 2-alpha (Homo sapiens) (UniProt P11388); assay: Inhibition of recombinant human topoisomerase 2alpha mediated decatenation using kDNA as substrate at 50 uM incubated for 30 mins by agarose gel electrophoresis
[4] = target: DNA topoisomerase 2-alpha (Homo sapiens) (UniProt P11388); assay: Potency index, ratio of compound activity to etoposide activity for inhibition of recombinant human topoisomerase 2alpha at 100 uM
[5] = target: DNA topoisomerase 2-alpha (Homo sapiens) (UniProt P11388); assay: Inhibition of recombinant human topoisomerase 2alpha assessed as relaxation of supercoiled plasmid DNA pBR322 at 100 uM incubated for 30 mins by agarose gel electrophoresis
[6] = target: DNA topoisomerase 2-alpha (Homo sapiens) (UniProt P11388); assay: Inhibition of recombinant human topoisomerase 2alpha assessed as relaxation of supercoiled plasmid DNA pBR322 at 20 uM incubated for 30 mins by agarose gel electrophoresis
[7] = target: T1, DNA topoisomerase 1 (Homo sapiens); assay: Potency index, ratio of compound activity to CPT activity for inhibition of recombinant human topoisomerase 1 at 100 uM
HCT-15 = assay: Cytotoxicity against human HCT15 cells measured after 2 days by MTT assay; assay type: functional, cell-based; settings: HCT-15, 48 h
[8] = target: T1, DNA topoisomerase 1 (Homo sapiens); assay: Inhibition of recombinant human topoisomerase 1 assessed as relaxation of supercoiled plasmid DNA pBR322 at 20 uM incubated for 30 mins by agarose gel electrophoresis
[9] = target: DNA topoisomerase 2-alpha (Homo sapiens) (UniProt P11388); assay: Potency index, ratio of compound activity to etoposide activity for inhibition of recombinant human topoisomerase 2alpha at 20 uM
[10] = target: T1, DNA topoisomerase 1 (Homo sapiens); assay: Inhibition of recombinant human topoisomerase 1 assessed as relaxation of supercoiled plasmid DNA pBR322 at 100 uM incubated for 30 mins by agarose gel electrophoresis
T47D = assay: Cytotoxicity against human T47D cells measured after 2 days by MTT assay; assay type: functional, cell-based; settings: 48 h
HeLa = assay: Cytotoxicity against human HeLa cells measured after 2 days by MTT assay; assay type: functional, cell-based; settings: 48 h

Chain of DNA topoisomerase 2-alpha (Homo sapiens) (P11388 whole entry): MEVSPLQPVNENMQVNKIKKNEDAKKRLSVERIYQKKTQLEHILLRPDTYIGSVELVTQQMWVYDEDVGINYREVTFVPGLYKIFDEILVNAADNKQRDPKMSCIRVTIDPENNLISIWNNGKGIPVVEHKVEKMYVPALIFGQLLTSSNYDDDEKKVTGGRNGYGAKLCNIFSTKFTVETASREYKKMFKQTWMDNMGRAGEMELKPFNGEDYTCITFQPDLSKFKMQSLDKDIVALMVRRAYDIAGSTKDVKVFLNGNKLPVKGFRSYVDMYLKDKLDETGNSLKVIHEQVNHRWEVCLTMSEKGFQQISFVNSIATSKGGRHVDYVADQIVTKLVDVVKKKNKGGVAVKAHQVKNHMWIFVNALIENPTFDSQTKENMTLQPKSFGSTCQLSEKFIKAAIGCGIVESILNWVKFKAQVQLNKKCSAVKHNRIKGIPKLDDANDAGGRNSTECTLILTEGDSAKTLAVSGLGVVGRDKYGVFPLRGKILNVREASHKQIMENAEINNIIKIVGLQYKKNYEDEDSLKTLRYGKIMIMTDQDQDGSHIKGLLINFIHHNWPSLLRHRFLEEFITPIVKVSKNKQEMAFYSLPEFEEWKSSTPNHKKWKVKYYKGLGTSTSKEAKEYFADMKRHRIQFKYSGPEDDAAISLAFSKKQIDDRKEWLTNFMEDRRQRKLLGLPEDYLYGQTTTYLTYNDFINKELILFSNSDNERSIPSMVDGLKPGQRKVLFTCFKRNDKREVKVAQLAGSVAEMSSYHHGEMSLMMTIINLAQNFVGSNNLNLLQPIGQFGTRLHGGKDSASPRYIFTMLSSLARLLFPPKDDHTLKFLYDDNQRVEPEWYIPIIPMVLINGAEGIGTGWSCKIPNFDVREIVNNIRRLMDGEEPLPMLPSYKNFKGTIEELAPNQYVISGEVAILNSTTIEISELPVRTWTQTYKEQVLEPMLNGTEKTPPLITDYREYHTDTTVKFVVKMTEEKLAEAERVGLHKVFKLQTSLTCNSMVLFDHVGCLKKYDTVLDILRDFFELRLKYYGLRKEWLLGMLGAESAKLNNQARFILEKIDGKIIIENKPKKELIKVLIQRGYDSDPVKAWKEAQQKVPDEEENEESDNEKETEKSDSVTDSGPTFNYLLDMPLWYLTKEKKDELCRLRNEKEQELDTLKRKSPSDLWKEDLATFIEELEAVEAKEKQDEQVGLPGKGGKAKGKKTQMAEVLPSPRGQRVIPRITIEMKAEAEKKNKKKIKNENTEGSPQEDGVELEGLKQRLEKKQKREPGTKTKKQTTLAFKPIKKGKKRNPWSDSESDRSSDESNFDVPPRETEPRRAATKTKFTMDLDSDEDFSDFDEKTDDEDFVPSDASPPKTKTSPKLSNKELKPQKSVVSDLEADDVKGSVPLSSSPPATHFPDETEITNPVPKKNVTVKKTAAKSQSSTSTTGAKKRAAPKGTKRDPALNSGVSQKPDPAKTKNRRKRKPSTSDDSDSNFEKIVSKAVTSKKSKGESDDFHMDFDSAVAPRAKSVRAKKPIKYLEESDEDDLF

O=c1[nH]c(-c2cccc3ccccc23)nc2ccc(N3CCOCC3)cc12
inhibition [1]: 83.8% | Ratio [2]: 0.62 | inhibition [3]: 3.2% | Ratio [4]: 0.58 | inhibition [5]: 46.4% | inhibition [6]: 39.2% | Ratio [7]: 1.24 | IC50 (HCT-15): > 50 µM | inhibition [8]: 10.7% | Ratio [9]: 0.78 | inhibition [10]: 100% | IC50 (T47D): > 50 µM | IC50 (HeLa): 0.12 µM

Cc1ccc2c(=O)[nH]c(-c3ccccc3C)nc2c1
inhibition [1]: 32.4% | Ratio [2]: 1.27 | inhibition [3]: 0% | Ratio [4]: 0.77 | inhibition [5]: 61.4% | inhibition [6]: 30.8% | Ratio [7]: 1.29 | IC50 (HCT-15): 11.9 µM | inhibition [8]: 39.2% | Ratio [9]: 0.62 | inhibition [10]: 100% | IC50 (T47D): > 50 µM | IC50 (HeLa): > 50 µM

Cc1c2ccncc2c(C)c2c1[nH]c1ccccc12
inhibition [1]: 88.3%
